Assay results reported in US20240423949A1, “APPLICATION OF SALVIANOLIC ACID B IN PREPARING ANTI-ROTAVIRUS PREPARATION” (GUANGDONG MEDICAL UNIVERSITY, priority 2023, published 2024).

Columns and labels:
[1] = test system: RV structural protein VP6 gene expression; assay: Gene expression level of RV structural protein VP6 in RV infected MA104 cells (real time PCR); assay type: cell-based, rotavirus
Experimental: (1) In order to further verify whether salvianolic acid B has an inhibitory effect on RV synthesis, a drug group (MA104 cells after RV infection were treated with different concentrations of salvianolic acid B), a ribavirin group, a normal group, and an RV group were set up. The supernatant was removed and PBS rinse was performed twice. 1 mL of Trizol reagent was added to each well and allowed to stand for 5 minutes. After blowing the cells with a gun tip, they were collected in a 1.5 mL enzyme free EP tube. 200 μL of chloroform was add to the tube. After 15 seconds of vortex shock, the tube was placed at room temperature for 5 min, and centrifuged (4° C., 12000 r/min for 15 min). The centrifuged sample was divided into three layers, namely, the colorless upper layer, the white middle layer and the red lower layer. […]
Real time quantitative PCR was performed using SYBR Green I fluorescence labeling to detect the expression levels of VP6 in the drug group, ribavirin group, normal group, and RV group, SYBR® Premix Pro Taq HS qPCR Kit II reagent kit was adopted, and GAPDH was selected as an internal reference. In the experiment, a real-time fluorescent quantitative PCR amplification reaction system was prepared according to the following table with a dedicated Real-time PCR plate of Axygen, and the reaction solution was prepared on ice (the total reaction was is 10 μL).

Wa strain rotavirus [2] = assay: Direct inhibitory effect on RV (drug pre-mixed with virus, MA104 cells, MTT assay); assay type: cell-based
Experimental: Different concentrations of salvianolic acid B solution with 50TCID50 virus solution (virus with 20 μg/mL trypsin at 37° C. for 30 min), DMEM with 50TCID50 virus solution, ribavirin with 50TCID50 virus solution were mixed in equal volumes and incubated in a 5% CO2 incubator at 37° C. for 2 hours. The cells were rinsed twice with PBS and added to a 96-well culture plate of MA104 cells grown to monolayers, and for the normal cell control group, an equal volume of DMEM was added. After incubated at 37° C. and 5% CO2 for 2 h, the mixed solution was aspirated and the maintenance solution was added, with 100 μL per well. The 96-well plate was placed in a 5% CO2 incubator at 37° C. for continuous observation for 72 h and then detected by the MTT assay. A 1/10 volume of MTT solution was added to each well. After incubated for 3-4 h in the incubator, the 96-well plate was removed, the culture solution in the well was carefully aspirated, and 150 µL of DMSO was added to each well. The plate was shaken at a low speed for 10 min on a shaker to fully dissolve the crystal, and the absorbance was detected and recorded at a wavelength of 490 nm. The drug-to-virus inhibition rates were calculated and the experiment was repeated 3 times.
Virus inhibition rate (%)=(average A value of drug group−average A value of virus control group)/(average A value of normal cell control group−average A value of virus control group)×100%

Wa strain rotavirus [3] = assay: Anti-RV biosynthesis effect in MA104 cells (drug after virus, MTT assay); assay type: cell-based; settings: 64-256 μM, 100 TCID50, 72 h
Experimental: 100 TCID50 virus solution (virus with 20 μg/mL trypsin at 37° C. for 30 min) was added to a 96-well culture plate of MA104 cells grown to monolayers, with 100 μL per well, and the cells were rinsed twice with PBS before addition. A normal cell control group was set, an equal volume of DMEM culture solution was added, then the 96-well plate was placed in a 5% CO2 incubator at 37° C. for incubation for 2 h, the virus solution was aspirated, different concentrations of salvianolic acid B and ribavirin were added, respectively, with 100 μL per well, and a virus control group was set and added with only a maintenance solution, with 100 μL per well. The 96-well plate was placed in a 5% CO2 incubator at 37° C. for incubation and continuous observation for 72 h and then detected by the MTT assay. A 1/10 volume of MTT solution was added to each well. After being incubated for 3-4 h in the incubator, the 96-well plate was removed, the culture solution in the well was carefully aspirated, and 150 μL of DMSO was added to each well. The plate was shaken at a low speed for 10 min on a shaker to fully dissolve the crystal, and the absorbance was detected and recorded at a wavelength of 490 nm. The drug-to-virus inhibition rates were calculated and the experiment was repeated 3 times. […]

Wa strain rotavirus [4] = assay: Anti-RV adsorption effect in MA104 cells (drug before virus, MTT assay); assay type: cell-based; settings: 16-256 μM
Experimental: Salvianolic acid B solutions of different concentrations were added into a 96-well culture plate of MA104 cells grown into monolayers, wherein 4 wells were repeated for each concentration of the solution, with 100 μL per well. An equal volume of ribavirin was added to the positive control group, and only an equal volume of DMEM culture solution was added to both the normal cell control group and the virus control group, and same were placed in a 5% CO2 incubator at 37° C. for incubation for 2 h. […] 1/10 volume of MTT solution was added to each well, after being incubated for 3-4 h in the incubator, the 96-well plate was taken out, the culture solution in the well was carefully aspirated, 150 uL of DMSO was added to each well, and same was placed on a shaker and shaken at a low speed for 10 min, so that the crystal was fully dissolved; and the absorbance was detected and recorded at a wavelength of 490 nm. The drug-to-virus inhibition rates were calculated and the experiment was repeated 3 times. […]

MA104 cells = assay: Toxicity of salvianolic acid B on MA104 cells (MTT assay); assay type: cell-based, Rhesus monkey; settings: 72 h; for Toxicity to MA104 cells: concentration range 0-256 μM
Experimental: When the MA104 cells grew to monolayers, the cells were digested, centrifuged and resuspended, and the suspension was further diluted and then 10 μL was taken and counted on a blood cell counting plate, and the required cell volume was calculated. Cell plating was then performed in a 96-well plate with 100 μL of the cell suspension per well at a cell density of 8×10^4 per mL. Cells grown to monolayers were treated with different concentrations of salvianolic acid B for 72 h, and the toxicity of salvianolic acid B on MA104 cells was detected by MTT assay. 10 μL of MTT solution was added to each well, and the mixture was incubated in the incubator for 3-4 h. Then, the 96-well plate was taken out, and the culture solution in the well was carefully aspirated from the wells. 150 μL of DMSO was added to each well, and the mixture was shaken at a low speed for 10 min on a shaker to fully dissolve the crystal, and the absorbance was detected and recorded at a wavelength of 490 nm.
The formula for the relative cell survival rate is:
Cell survival rate={(Aexperimental group−Ablank)/(Acontrol group−Ablank)×100%}

Compound	Gene expression of VP6 compared to the RV group ([1]; ribavirin group)	Direct inhibitory effect on RV (conclusion) (Wa strain rotavirus [2]; 16-256 μM)	inhibition at 16 µM (Wa strain rotavirus [2]; Rotavirus, MA104, 16 μM (first of five values over 16-256 μM), 50TCID50, 72 h, read-out: Inhibitory rate directly inhibiting RV) [%]	inhibition at 32 µM (Wa strain rotavirus [2]; Rotavirus, MA104, 32 μM (second of five values over 16-256 μM), 50TCID50, 72 h, read-out: Inhibitory rate directly inhibiting RV) [%]	inhibition at 64 µM (Wa strain rotavirus [2]; Rotavirus, MA104, 64 μM (third of five values over 16-256 μM), 50TCID50, 72 h, read-out: Inhibitory rate directly inhibiting RV) [%]	inhibition at 128 µM (Wa strain rotavirus [2]; Rotavirus, MA104, 128 μM (fourth of five values over 16-256 μM), 50TCID50, 72 h, read-out: Inhibitory rate directly inhibiting RV) [%]	inhibition at 256 µM (Wa strain rotavirus [2]; Rotavirus, MA104, 256 μM (fifth of five values over 16-256 μM), 50TCID50, 72 h, read-out: Inhibitory rate directly inhibiting RV) [%]	Virus inhibition rate (anti-RV biosynthesis) (Wa strain rotavirus [3])	Anti-RV adsorption effect (conclusion) (Wa strain rotavirus [4])	Virus inhibition rate (anti-RV adsorption) (Wa strain rotavirus [4]; 100TCID50, 72 h)	Cell survival rate (MA104 cells; 512 μM, MA104 cells)	Toxicity to MA104 cells (MA104 cells)	Toxicity to MA104 cells (MA104 cells; listed as Salvianolic acid B)	Expression level of VP6 compared with the RV group ([1]; 64, 128 and 256 μM, dose-response correlation)
NC(=O)c1ncn([C@@H]2O[C@H](CO)[C@@H](O)[C@H]2O)n1 [ribavirin, reference compound]	significantly reduced													
O=C(/C=C/c1ccc(O)c2c1[C@@H](C(=O)O[C@H](Cc1ccc(O)c(O)c1)C(=O)O)[C@H](c1ccc(O)c(O)c1)O2)O[C@H](Cc1ccc(O)c(O)c1)C(=O)O [salvianolic acid B, Salvianolic acid B]		no direct inhibitory effect	14.2	15.2	16.5	15.8	12.7	higher than 50%	no significant anti-RV adsorption effect	below 50%	below 95%	no obvious toxicity	no drug toxicity	significantly reduced
